In brackets after ≈: the same amount, converted by molar mass.

The test system of this test is Mycobacterium tuberculosis SMR. Description: Antimicrobial activity (MIC) against tubercle bacilli. The format is cell-based. The conditions noted are these: 672 h.

For orientation: MIC means the smallest concentration in the dilution series that meets the test's criterion for growth inhibition. Higher therefore signals a need for much substance. Consider `COC1=C(C)C(=O)c2cc(=O)n(C)cc2C1=O` [mimosamycin], for which the minimum inhibitory concentration (MIC) came to 1.56 µg/mL (≈ 6.69 µM).

The record behind these values is US4081531A, “Antibiotic mimosamycin” (priority 1975, dated 1978).
